The values that follow come from publication PMC7076013 (Scientific Reports, 2020).

The subject of assay [1] is A375, human melanoma. Put plainly: CV (crystal violet) cell viability, A375. It counts as cell-based. The conditions noted are these: for IC50: 48 h; for Selectivity index A375: IC50 macrophages / IC50 cancer. The procedure: (§1) Both melanoma and colon cancer are tumor types tightly connected with inflammation, while the expression of COX-2 in the selected cell lines was highly variable. Since a lot of discrepancies were found in the literature concerning the expression of this enzyme[5],[48]–[53], both COX-1 and COX-2 expression was analyzed by Western blot. […] The cells were treated with a wide range of doses of 4a–c, 5, and 6 for 48 h and cell viability was determined by MTT (3-(4,5-dimethylthiazol-2-yl)-2,5-diphenyltetrazolium bromide) and CV (crystal violet) assays. The obtained IC50 values were similar for both assays (Table 1).
(§2) Reagents were obtained from Sigma (St. Louis, MO) unless indicated otherwise. Annexin V - FITC (AnnV) was acquired from Biotium (Hayward, CA) and Apostat from R&D (R&D S ystems, Minneapolis, MN USA). […] After being detached b y tr ypsinization, cells were seeded in defined number as follows: 2.5 × 10^3 cells/well in 96-well plates for viability assessment and 2 × 10^4 cells/well in 24-well plates for flow cytometry. Peritoneal resident […]
(§3) for Biolo gical Research “Siniša Stanković” b y peritoneal lav age with an ice- cold phosphate buffer solution (PBS). The handling of animals and protocol for obtaining cells is in agreement with the rules of the European Union and approved by the Institutional Animal Care and Use Committee at IBISS (02- 09/1 6). Cells were counted and seeded in 96-well plates and incubat ed overnight. Before treatment, non- adherent cells were removed. Compounds 4a- c, 5 and 6 were dissolved in DMSO and stored at −20 °C for a m onth. Working solutions were freshl y prepared in 10% FCS-RPMI-1640. Controls were treated with culture medium containing the equivalent […]
(§4) 3.2. Cell viability tests.
(§5) The number of viable cel ls in culture was estimated by the MTT (3-(4,5- dimethylthiazol- 2-yl ) - 2,5- diphenyltetrazolium bromide) and CV (crystal violet) tests. Cells were incubated in the presence of compounds 4a- c, 5 and 6 for 48 h, then the viability was measured as described.4 […]
(§6) The results were ex pressed as a p er centage of a v alue obtained for the untr eated control cells that was arbitrarily set to be 100%. A non- linear regression analysis of obtained results was done b y using Gr aphPad Prism software to calculat e IC50 values. […]

For a further assay, the target named is T1, ovine COX-1 (Ovis aries, UniProt P05979).
T1 construct: purchased Cayman Chemical Item No. 700100 (assay kit)
T1 sequence (P05979 25-600): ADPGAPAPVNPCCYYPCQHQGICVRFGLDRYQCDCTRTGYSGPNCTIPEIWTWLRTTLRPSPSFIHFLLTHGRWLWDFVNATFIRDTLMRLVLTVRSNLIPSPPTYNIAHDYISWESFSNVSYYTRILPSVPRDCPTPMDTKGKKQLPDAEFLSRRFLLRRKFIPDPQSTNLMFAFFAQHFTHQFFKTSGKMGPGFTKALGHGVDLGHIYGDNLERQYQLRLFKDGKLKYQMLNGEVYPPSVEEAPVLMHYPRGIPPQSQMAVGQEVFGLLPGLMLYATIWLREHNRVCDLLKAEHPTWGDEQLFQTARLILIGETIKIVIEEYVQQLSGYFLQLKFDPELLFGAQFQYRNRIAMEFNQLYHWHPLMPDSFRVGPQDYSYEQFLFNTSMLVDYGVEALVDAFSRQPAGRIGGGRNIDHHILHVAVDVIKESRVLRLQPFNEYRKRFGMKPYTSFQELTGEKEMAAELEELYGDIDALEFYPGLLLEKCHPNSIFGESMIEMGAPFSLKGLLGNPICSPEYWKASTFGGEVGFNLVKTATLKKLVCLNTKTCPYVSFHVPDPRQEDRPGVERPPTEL
Put plainly: COX Fluorescent Inhibitor Screening Assay, COX-1. The conditions noted are these: ovine COX-1, Cayman kit 700100. It counts as biochemical. The method, then:
The synthesized compounds were tested in vitro for their potential to inhibit ovine COX-1 and human recombinant COX-2.
*All compounds were measured with the Cytation 5 plate reader and the "COX Fluorescent Inhibitor […]
chemi cals, USA) " according to the manufacturer's
Error bars indicate standard error mean (SEM) obtained from two measurements at each concentration.
(1 picture or pasted object on this page, not shown here)

For assay [2], the system named is B16, mouse solid melanoma. Put plainly: MTT cell viability, B16. It counts as cell-based. The conditions noted are these: 48 h. The method, then: as §1
(§7) Reagents were obtained from Sigma (St. Louis, MO) unless indicated otherwise. Annexin V - FITC (AnnV) was acquired from Biotium (Hayward, CA) and Apostat from R&D (R&D S ystems, Minneapolis, MN USA). […] After being detached b y tr ypsinization, cells were seeded in defined number as follows: 2.5 × 10^3 cells/well in 96-well plates for viability assessment and 2 × 10^4 cells/well in 24-well plates for flow cytometry. […]
(§8) Committee at IBISS (02- 09/1 6). Cells were counted and seeded in 96-well plates and incubat ed overnight. Before treatment, non- adherent cells were removed. Compounds 4a- c, 5 and 6 were dissolved in DMSO and stored at −20 °C for a m onth. Working solutions were freshl y prepared in 10% FCS-RPMI-1640. Controls were treated with culture medium containing the equivalent […]
as §4, §5, §6

Assay [3] concerns B16F10, mouse metastatic melanoma. Put plainly: CV (crystal violet) cell viability, B16F10. It counts as cell-based. The conditions noted are these: for IC50: 48 h; for Selectivity index B16F10: IC50 macrophages / IC50 cancer. The procedure:
as §1, §2, §3, §4, §5, §6

Assay [4] relates to HCT116, human colon carcinoma. Put plainly: MTT cell viability, HCT116. It counts as cell-based. The conditions noted are these: 48 h. The method, then: as §1, §7, §8, §4, §5, §6
Assay [5] concerns A375, human melanoma. Put plainly: MTT cell viability, A375. The conditions noted are these: 48 h. It counts as cell-based. The procedure: as §1, §7, §8, §4, §5, §6
Assay [6] concerns CT26CL25, mouse colon carcinoma. Put plainly: CV (crystal violet) cell viability, CT26CL25. It counts as cell-based. The conditions noted are these: for IC50: 48 h; for Selectivity index CT26CL25: IC50 macrophages / IC50 cancer. The method, then:
as §1, §2, §3, §4, §5, §6

The test system of assay [7] is B16, mouse solid melanoma. Put plainly: CV (crystal violet) cell viability, B16. It counts as cell-based. The conditions noted are these: for IC50: 48 h; for Selectivity index B16: IC50 macrophages / IC50 cancer. The method, then: as §1, §2, §3, §4, §5, §6
For the next assay, the system named is A375 cells. Put plainly: Light microscopy of A375 cultures (oval vs. fibroblast-like cells). It counts as cell-based, human. The conditions noted are these: A375, treated cells, 48 h. From the text:
It is known that the A375 cell line has a heterogeneous morphology with a subpopulation of highly metastatic oval cells. […] Thus, it can be concluded that compound 5 affected the two populations in different manners with a stronger effect on the metastatic oval cells.

With “R,S-7-(2-oxo-4-(4-sulfamoylphenyl)-2,5-dihydrofuran-3-yl)-7,8-dicarba-nido-dodeca-hydroundecaborate(–1) sodium [Compound 6]”, the IC50 was more than 50 µM with A375, human melanoma [1]; more than 100 µM against ovine COX-1; more than 50 µM in [2]; more than 50 µM in assay [3]; more than 50 µM in assay [4]; more than 50 µM with A375, human melanoma [5]. Besides, the IC50 in assay [6] and in assay [7] was more than 50 µM throughout.

“4-[4-(hydroxymethyl)phenyl]-3-(1,2-dicarba-closo-dodecaboranyl)furan-2(5H)-one [Compound 4c]”: the IC50 with A375, human melanoma [1] is 10.5 ± 0.75 µM; against ovine COX-1, more than 100 µM; in [2] it was 26.1 ± 2.49 µM; in assay [3], 26.5 ± 2.62 µM; in [4], 22.2 ± 0.95 µM; in the assay on A375, human melanoma [5], 17.9 ± 1.26 µM. Also, the IC50 in assay [6] was 29.2 ± 2.86 µM; in assay [7], 30.8 ± 3.22 µM. In the assay on A375, human melanoma [1], the “Selectivity index A375” value is given as 6.3. Also, the “Selectivity index B16F10” value in [3] is on record as 2.5. Moreover, the “Selectivity index CT26CL25” value in assay [6] worked out at 2.3. In [7], the “Selectivity index B16” value came to 2.1.

Consider “4-phenyl-3-(1,2-dicarba-closo-dodecaboranyl)furan-2(5 H)-one [Compound 4a]”, for which the IC50 in the assay on A375, human melanoma [1] was 16 ± 1.65 µM; against ovine COX-1 it was more than 100 µM; in assay [2], 30.8 ± 2.81 µM; in assay [3], 25.4 ± 2.41 µM; in assay [4], 13.5 µM; in the assay on A375, human melanoma [5], 20.2 ± 1.26 µM. Moreover, the IC50 in [6] amounted to 37.2 ± 2.21 µM; in [7], 30.6 ± 3.86 µM. In the assay on A375, human melanoma [1], the “Selectivity index A375” value was 3.1. Moreover, the “Selectivity index B16F10” value in assay [3] turned out to be 1.9. Moreover, the “Selectivity index CT26CL25” value in assay [6] is listed as 1.3. Besides, in assay [7], the “Selectivity index B16” value is 1.6.

Regarding “4-[4-(methylsulfonyl)phenyl]-3-(1,2-dicarba-closo-dodecaboranyl)furan-2(5H)-one [Compound 4b]”, the IC50 in the assay on A375, human melanoma [1] was 14.1 ± 0.75 µM; against ovine COX-1 it was more than 100 µM; in [2] it was 18 ± 1.71 µM; in [3], 26.6 ± 2.62 µM; in assay [4] it was 42.5 ± 1.42 µM; in the assay on A375, human melanoma [5], 16.9 ± 1.35 µM. Also, the IC50 in assay [6] was 36.1 ± 1.25 µM; in assay [7], 22.2 ± 0.65 µM. Moreover, in the assay with A375, human melanoma [1], the “Selectivity index A375” value came to 4.7. In assay [3], the “Selectivity index B16F10” value was determined as 2.5. In addition, the “Selectivity index CT26CL25” value in [6] was 1.8. The “Selectivity index B16” value in [7] turned out to be 3.0.

Turning to “4-[4-(methylnitrooxy)phenyl]-3-(1,2-dicarba-closo-dodecaboranyl)furan-2(5 H)-one [Compound 5]”, the IC50 in the assay with A375, human melanoma [1] is 4.7 ± 0.3 µM; against ovine COX-1, more than 100 µM; in [2] it was 10.1 ± 0.4 µM; in assay [3] it was 7.65 ± 0.26 µM; in assay [4], 8.9 µM; in the assay on A375, human melanoma [5] it was 4.25 ± 1.65 µM. Further, the IC50 in [6] was 29.4 ± 2.12 µM; in assay [7], 11.5 ± 1.05 µM. In addition, the “Selectivity index A375” value in the assay on A375, human melanoma [1] turned out to be 7.9. In addition, in [3], the “Selectivity index B16F10” value came to 4.8. For the same substance, the “Selectivity index CT26CL25” value in assay [6] was 1.3. Further, the “Selectivity index B16” value in [7] was determined as 3.2. Further, the “% of oval cells” value in the assay with A375 cells (control 46 ± 2.8) was determined as 28 ± 2.6%. In addition, in the assay with A375 cells (control 54 ± 3.2), the “% of fibroblast-like cells” value came out at 72 ± 7.4%.
